Measurements from patent publication US10457710B2, “Antimicrobial peptides, their variants and uses” (priority 2015, dated 2019).
Where a SMILES comes first, the peptide text is derived from it. [ ]: non-standard residue; d: D form.

Columns and labels:
Type in all cases: cell-based
[1] = tested on: C. quillermondiae; assay: MIC, clinical yeast strains; details: clinical yeast strain 1; D-form peptide; concentrations tested 0.125 to 128 μg/ml
How it was run: (§1)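 Broth microdilution in Potato dextrose broth, inoculum 5.0×10^5 cfu/ml, peptide 0.125–128 μg/ml, incubated at 37 °C for 20–24 h; MIC taken as lowest concentration without visible growth. A. johnsonii clinical strains were tested the same way in Mueller Hinton broth.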

[2] = tested on: clinical strains of S. pneumoniae; assay: MIC, microdilution, clinical strains; details: 0.02% BSA, 0.2% acetic acid
How it was run: (§2)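 Overnight MH agar colonies were suspended in MH broth to 5.0×10^5 cfu/ml, mixed with serial peptide dilutions (0.125–128 μg/ml) and incubated at 37° C for 20 to 24 hours. Yeast MICs were run the same way in potato dextrose broth, and wells were scored visually.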

[3] = tested on: clinical strains of S. aureus; assay: MIC, microdilution, clinical strains; details: 0.02% BSA, 0.2% acetic acid
How it was run: as §2

[4] = tested on: clinical strains of P. aeruginosa; assay: MIC, microdilution, clinical strains; details: 0.02% BSA, 0.2% acetic acid
How it was run: as §2

[5] = tested on: clinical strains of K. pneumoniae; assay: MIC, microdilution, clinical strains; details: 0.02% BSA, 0.2% acetic acid
How it was run: as §2

[6] = tested on: clinical strains of E. cloacae; assay: MIC, microdilution, clinical strains; details: 0.02% BSA, 0.2% acetic acid
How it was run: as §2

[7] = tested on: clinical strains of Serratia marcescens; assay: MIC, microdilution, clinical strains; details: 0.02% BSA, 0.2% acetic acid
How it was run: as §2

[8] = tested on: clinical strains of Proteus mirabilis; assay: MIC, microdilution, clinical strains; details: 0.02% BSA, 0.2% acetic acid
How it was run: as §2

[9] = tested on: clinical strains of E. coli; assay: MIC, microdilution, clinical strains; details: microdilution, Muller Hinton broth-cation adjusted, 0.02% BSA, 0.2% acetic acid
How it was run: as §2

[10] = tested on: C. glabrata; assay: MIC, clinical yeast strains; details: D-form peptide, concentrations tested 0.125 to 128 μg/ml
How it was run: as §1

[11] = tested on: Candida albicans; assay: MIC, clinical yeast strains; details: D-form peptide, concentrations tested 0.125 to 128 μg/ml
How it was run: as §1

[12] = tested on: C. parapsilosis; assay: MIC, clinical yeast strains; details: D-form peptide, concentrations tested 0.125 to 128 μg/ml
How it was run: as §1

[13] = tested on: clinical strains of Acinetobacter baumannii; assay: MIC, microdilution, clinical strains; design: unit: μg/ml; details: 0.02% BSA, 0.2% acetic acid
Experimental: Minimum inhibition concetrations (MICs) were determined against Escherichia coli (ATCC 25922), Staphylococcus aureus (ATCC 25923), Klebsiella pneumoniae (ATCC 10031) and Pseudomonas aeruginosa (ATCC 27853). Also clinical strains of E. coli, K. pneumoniae, E. cloacae, P. aeruginosa, Serratia marcescens, Proteus mirabilis, S. pneumoniae, Acinetobacter baumannii, A. johnsonii and S. aureus were used for MICs assays. Additionally, clinical strains of yeast including Candida albicans, C. glabrata, C. parapsilosis and C. quillermondiae were used. The susceptibility of these microorganisms to Chain peptides were determined using micro broth dilution assay. Colonies of the respective microorganism from Muller Hinton (MH) agar plates incubated overnight were suspended in MH broth media and final concentration of microorganism was adjusted to 5.0×10^5 cfu/ml. An aliquot of 10 μl of each Chain peptide, or gentamicin, tetracycline as reference antibiotics were added in differing concentrations along with 90 μl of bacterial suspension to 96 well polypropylene plates and incubated at 37° C. for 20 to 24 hours. Concentrations of Chain peptides and reference antibiotics ranged from 0.125 to 128 μg/ml and the MICs were recorded as the lowest concentration with no visual growth of bacteria. Similarly, antifungal MICs were tested in Potato dextrose broth.
Clinical strains of yeasts including Candida albicans, C. glabrata, C. parapsilosis and C. quillermondiae were also tested with the 12 Chain peptides. The minimum inhibitory concentration (MICs) varied between these peptides and are presented in Tables 4a, 4b, 4c and 5a, 5b, 5c. Peptides Chain 105, 201 and 308 are broad spectrum antimicrobials with MICs between 0.5-32 μg/ml against all the bacteria and yeasts tested, except Serratia marcescens and Proteus mirabilis, against which the MICs were between 64-128 μg/ml. Peptide Chain 306 has narrow spectrum activity against E. coli at 1 μg/ml and for the rest of the bacterial strains at >32 μg/ml (FIG. 10c).

## CC[C@@H](C)[C@@H](NC(=O)[C@@H](Cc1c[nH]c2ccccc12)NC(=O)[C@H](N)CCCCN)C(=O)N[C@@H](C(=O)N[C@H](Cc1c[nH]c2ccccc12)C(=O)N[C@H](CCCNC(=N)N)C(=O)N[C@H](Cc1c[nH]c2ccccc12)C(=O)N[C@H](CCCNC(=N)N)C(=O)N[C@H](Cc1ccccc1)C(=O)N[C@H](CCCCN)C(=O)N[C@H](CCCNC(=N)N)C(=O)O)C(C)C [Chain201D] (H-[dK][dW][dI][dV][dW][dR][dW][dR][dF][dK][dR]-OH)
[1]
  Minimum inhibitory concentration, C. quillermondiae strain 1: 8
[2]; Streptococcus pneumoniae strain 1, Muller Hinton broth-cation adjusted
  Minimum inhibitory concentration: 8
[2]; Streptococcus pneumoniae strain 2, Muller Hinton broth-cation adjusted
  Minimum inhibitory concentration: 4
[2]; Streptococcus pneumoniae strain 3, Muller Hinton broth-cation adjusted
  Minimum inhibitory concentration: 2
[2]; Streptococcus pneumoniae strain 4, Muller Hinton broth-cation adjusted
  Minimum inhibitory concentration: 4
[2]; Streptococcus pneumoniae strain 5, Muller Hinton broth-cation adjusted
  Minimum inhibitory concentration: 4
[3]; Staphylococcus aureus strain 1, Muller Hinton broth-cation adjusted
  Minimum inhibitory concentration: 1
[3]; Staphylococcus aureus strain 2, Muller Hinton broth-cation adjusted
  Minimum inhibitory concentration: 1
[3]; Staphylococcus aureus strain 3, Muller Hinton broth-cation adjusted
  Minimum inhibitory concentration: 1
[3]; Staphylococcus aureus strain 4, Muller Hinton broth-cation adjusted
  Minimum inhibitory concentration: 1
[3]; Staphylococcus aureus strain 5, Muller Hinton broth-cation adjusted
  Minimum inhibitory concentration: 1
[4]; Pseudomonas aeruginosa strain 1, Muller Hinton broth-cation adjusted
  Minimum inhibitory concentration: 4
[4]; Pseudomonas aeruginosa strain 2, Muller Hinton broth-cation adjusted
  Minimum inhibitory concentration: 4
[4]; Pseudomonas aeruginosa strain 3, Muller Hinton broth-cation adjusted
  Minimum inhibitory concentration: 4
[4]; Pseudomonas aeruginosa strain 4, Muller Hinton broth-cation adjusted
  Minimum inhibitory concentration: 2
[4]; Pseudomonas aeruginosa strain 5, Muller Hinton broth-cation adjusted
  Minimum inhibitory concentration: 2
[5]; Klebsiella pneumoniae strain 1, Muller Hinton broth-cation adjusted
  Minimum inhibitory concentration: 2
[5]; Klebsiella pneumoniae strain 2, Muller Hinton broth-cation adjusted
  Minimum inhibitory concentration: 2
[5]; Klebsiella pneumoniae strain 3, Muller Hinton broth-cation adjusted
  Minimum inhibitory concentration: 4
[5]; Klebsiella pneumoniae strain 4, Muller Hinton broth-cation adjusted
  Minimum inhibitory concentration: 4
[5]; Klebsiella pneumoniae strain 5, Muller Hinton broth-cation adjusted
  Minimum inhibitory concentration: 2
[6]; Enterobacter cloacae strain 1, Muller Hinton broth-cation adjusted
  Minimum inhibitory concentration: 1
[6]; Enterobacter cloacae strain 2, Muller Hinton broth-cation adjusted
  Minimum inhibitory concentration: 2
[6]; Enterobacter cloacae strain 3, Muller Hinton broth-cation adjusted
  Minimum inhibitory concentration: 2
[6]; Enterobacter cloacae strain 4, Muller Hinton broth-cation adjusted
  Minimum inhibitory concentration: 2
[6]; Enterobacter cloacae strain 5, Muller Hinton broth-cation adjusted
  Minimum inhibitory concentration: 1
[7]; Serratia marcescens strain 1, Muller Hinton broth-cation adjusted
  Minimum inhibitory concentration: 64
[7]; Serratia marcescens strain 2, Muller Hinton broth-cation adjusted
  Minimum inhibitory concentration: 64
[7]; Serratia marcescens strain 3, Muller Hinton broth-cation adjusted
  Minimum inhibitory concentration: 64
[7]; Serratia marcescens strain 4, Muller Hinton broth-cation adjusted
  Minimum inhibitory concentration: 64
[7]; Serratia marcescens strain 5, Muller Hinton broth-cation adjusted
  Minimum inhibitory concentration: 128
[8]; Proteus mirabilis strain 1, Muller Hinton broth-cation adjusted
  Minimum inhibitory concentration: >128
[8]; Proteus mirabilis strain 2, Muller Hinton broth-cation adjusted
  Minimum inhibitory concentration: 32
[8]; Proteus mirabilis strain 3, Muller Hinton broth-cation adjusted
  Minimum inhibitory concentration: 64
[8]; Proteus mirabilis strain 4, Muller Hinton broth-cation adjusted
  Minimum inhibitory concentration: >128
[8]; Proteus mirabilis strain 5, Muller Hinton broth-cation adjusted
  Minimum inhibitory concentration: >128
[9]; Escherichia coli strain 1
  Minimum inhibitory concentration: 16
[9]; Escherichia coli strain 2
  Minimum inhibitory concentration: 1
[9]; Escherichia coli strain 3
  Minimum inhibitory concentration: 1
[9]; Escherichia coli strain 4
  Minimum inhibitory concentration: 1
[9]; Escherichia coli strain 5
  Minimum inhibitory concentration: 1
[10]; clinical yeast strain 1
  Minimum inhibitory concentration, C. glabrata strain 1: 8
[10]; clinical yeast strain 2
  Minimum inhibitory concentration, C. glabrata strain 2: 8
[10]; clinical yeast strain 3
  Minimum inhibitory concentration, C. glabrata strain 3: 8
[10]; clinical yeast strain 4
  Minimum inhibitory concentration, C. glabrata strain 4: 64
[11]; clinical yeast strain 1
  Minimum inhibitory concentration, Candida albicans strain 1: 16
[11]; clinical yeast strain 2
  Minimum inhibitory concentration, Candida albicans strain 2: 8
[11]; clinical yeast strain 3
  Minimum inhibitory concentration, Candida albicans strain 3: 8
[11]; clinical yeast strain 4
  Minimum inhibitory concentration, Candida albicans strain 4: 16
[11]; clinical yeast strain 5
  Minimum inhibitory concentration, Candida albicans strain 5: 8
[12]; clinical yeast strain 1
  Minimum inhibitory concentration, C. parapsilosis strain 1: 8
[12]; clinical yeast strain 2
  Minimum inhibitory concentration, C. parapsilosis strain 2: 8
[12]; clinical yeast strain 3
  Minimum inhibitory concentration, C. parapsilosis strain 3: 8
[12]; clinical yeast strain 4
  Minimum inhibitory concentration, C. parapsilosis strain 4: 8
[13]; Acinetobacter baumannii strain 1, Muller Hinton broth-cation adjusted
  Minimum inhibitory concentration: 4
[13]; Acinetobacter baumannii strain 2, Muller Hinton broth-cation adjusted
  Minimum inhibitory concentration: 4
[13]; Acinetobacter baumannii strain 3, Muller Hinton broth-cation adjusted
  Minimum inhibitory concentration: 4
[13]; Acinetobacter baumannii strain 4, Muller Hinton broth-cation adjusted
  Minimum inhibitory concentration: 4
[13]; Acinetobacter baumannii strain 5, Muller Hinton broth-cation adjusted
  Minimum inhibitory concentration: 4
